From patent US9090640B2, “Targeted delivery and prodrug designs for platinum-acridine anti-cancer compounds and methods thereof” (priority 2011, dated 2015) come the findings set out here.

The structures appear in SMILES notation.

Assay [1] deals with NCI-H460. Briefly: Cytotoxicity (cell proliferation) assay in NCI-H460. It is filed as cell-based, human. The procedure:
Cytotoxicity Assay. Cytotoxicity studies were carried out according to a standard protocol (Guddneppanavar et al. 2006) using the Celltiter 96 Aqueous Non-Radioactive Cell Proliferation Assay kit (Promega, Madison, Wis.). Stock solutions of 11, 14a, and 14b were prepared in phosphate-buffered saline (PBS) and serially diluted with media prior to incubation with cancer cells. IC50 values were calculated from non-linear curve fits using a sigmoidal dose-response equation in GraphPad Prism (GraphPad Software, La Jolla, Calif.). […]
Cell Proliferation Assay. Cell viability was assessed using the CellTiter 96 Aqueous Non-Radioactive Cell Proliferation Assay (Promega, Madison. Wis., USA) as described previously. […] The absorbance of tetrazolium dye was measured at 490) nm using a plate reader. The fraction of viable cells was calculated as a percentage of untreated control and is reported as the mean±standard deviation for 3 incubations of each compound. IC50 values were calculated from non-linear curve fits using a sigmoidal dose-response equation in GraphPad Prism (GraphPad Software, La Jolla, Calif.) and are averages of two individual experiments performed in triplicate. […]

Assay [2] deals with OVCAR-3 (ovarian). Put plainly: Colorimetric cell proliferation assay in OVCAR-3. It is filed as cell-based. Conditions: 72-h incubations performed in triplicate.
For assay [3], the system named is MDA-MB-231 (triple-negative breast). Put plainly: Colorimetric cell proliferation assay in MDA-MB-231. The format is cell-based. Conditions: 72-h incubations performed in triplicate.
Assay [4] relates to MCF-7 (ER + breast). Put plainly: Colorimetric cell proliferation assay in MCF-7. It is filed as cell-based. Conditions: 72-h incubations performed in triplicate.
Assay [5] concerns PANC-1 (pancreatic). Briefly: Colorimetric cell proliferation assay in PANC-1. The format is cell-based. Conditions: 72-h incubations performed in triplicate.

As a reminder, the IC50 is the concentration at which inhibition is half-maximal. Consider `N.N.[Cl][Pt][Cl]` [cispiatin, cis-diamminedichloroplatinum], for which the IC50 in assay [1] (72-h incubations performed in triplicate (Table II), read-out: IC50, NCI-H460 (NSCLC)) was found to be 1.2 ± 0.2 µM; in assay [2], 3.3 ± 0.4 µM; in assay [3], 60 ± 7 µM; in assay [4], 12 ± 2 µM; in assay [5], 6.6 ± 0.7 µM. The “Fold less potent than the compounds of the invention in H460 cells” value in assay [1] (compared with 14a and 14b) was “at least 20 fold”.
